Each structure is given as a SMILES string.

Usually logP stands for the decadic logarithm of the partition coefficient of the neutral form, usually between octanol and water. Compound `COC(=O)NC1=NCC(c2ccccc2SC)N1C` (stereo not given) had a log partition coefficient (logP) of 2.08.
With `COC(=O)NC1=NCC(c2ccccc2C)N1C` (stereo not given), the log partition coefficient (logP) is 1.85.
Consider `COC(=O)NC1=NCC(c2ccc(C(F)(F)F)cc2)N1` (stereo not given), for which the logP was determined as 2.25.
Next, `COC(=O)NC1=NCC(c2cccc(F)c2)N1` (stereo not given): 1.41; `NCCCCCCCCOc1cccc2ccccc12`: 3.14; `COC(=O)NC1=NCC(c2ccc(C(=O)OC)cc2)N1C` (stereo not given): 1.38.
`NCCCOc1cccc2ccccc12` came in with a lipophilicity (logP) of 1.04.
Consider `COC(=O)NC1=NCC(c2ccc3ccccc3c2)N1` (stereo not given), for which the logP was 2.54.
The value for `COC(=O)NC1=NCC(c2cccc(Cl)c2)N1` (stereo not given) was 1.9.
Next, `COC(=O)NC1=NCC(c2cccc(Cl)c2)N1C` (stereo not given): 2.1.
`O=c1c2ncn(COCCO)c2nc2[nH]c(-c3ccc4ccccc4c3)cn12` had a logP of 2.09. This logP and that of the compound before are within 0.2 log units of each other.
Regarding `COc1ccc(C(=O)c2c(C)cc3n2CCC3C(=O)O)cc1` (stereo not given), the logP amounted to 2.91.
`COC(=O)NC1=NCC(c2ccc(F)cc2)N1` (stereo not given) showed a log partition coefficient (logP) of 1.49.
As to `COC(=O)NC1=NCC(c2ccc(CO)cc2)N1C` (stereo not given), the log partition coefficient (logP) was determined as 0.28.
Next, `CN(C)CCCCOc1cccc2ccccc12`: 2.05; `CCc1cc2n(c1C(=O)c1ccccc1)CCC2C(=O)O` (stereo not given): 3.31.
The value for `CCOC(=O)NC1=NCC(c2ccc(F)cc2)N1C` (stereo not given) was 1.9; that for `CN(C)CCCOc1cccc2ccccc12` was 1.99; that for `NCCCCCOc1cccc2ccccc12` was 1.59.
In turn, `COC(=O)NC1=NCC(c2ccccc2F)N1C` (stereo not given) came in with a lipophilicity (logP) of 1.53. The logP values of the last two compounds are within 0.2 log units of each other.
For the compound `COC(=O)NC1=NCC(c2cc(Br)ccc2Br)N1C` (stereo not given), the logP was 2.77.
`Cc1cc2n(c1C(=O)c1ccc(Cl)cc1)CCC2C(=O)O` (stereo not given) returned a logP of 3.6.
The value for `CCOC(=O)NC1=NCC(c2ccc(CO)cc2)N1C` (stereo not given) was 0.84.
Compound `CCOC(=O)NC1=NCC(c2cccc(Cl)c2)N1C` (stereo not given) came in with a lipophilicity (logP) of 2.45.
Compound `CCOC(=O)NC1=NCC(c2cccc(F)c2)N1C` (stereo not given) yielded a lipophilicity (logP) of 1.84.
Take `NCCOc1cccc2ccccc12`: the log partition coefficient (logP) amounted to 1.15.
In the case of `Cc1cc2n(c1C(=O)c1ccccc1)CCC2C(=O)O` (stereo not given), the log partition coefficient (logP) was determined as 2.85.
The value for `CCOC(=O)NC1=NCC(c2ccccc2Cl)N1C` (stereo not given) was 2.4; that for `CN(C)CCOc1cccc2ccccc12` was 2.12; that for `COC(=O)NC1=NCC(c2ccc3c(c2)OCO3)N1` (stereo not given) was 1.21.
Consider `CCOC(=O)NC1=NCC(c2cccc(C)c2C)N1C` (stereo not given), for which the logP was determined as 2.57.
Next, `COC(=O)NC1=NCC(c2cccc(C)c2)N1C` (stereo not given): 1.85; `COC(=O)NC1=NCC(c2ccccc2)N1` (stereo not given): 1.55; `COC(=O)NC1=NCC(c2ccc(Cl)cc2)N1C` (stereo not given): 2.17.
Consider `COC(=O)NC1=NCC(c2ccccc2Br)N1` (stereo not given), for which the log partition coefficient (logP) came to 1.85.
The value for `NCCCCCCOc1cccc2ccccc12` was 2.06.
Next, `CCc1cc2n(c1C(=O)c1ccc(F)cc1)CCC2C(=O)O` (stereo not given): 3.63; `COC(=O)NC1=NCC(c2ccc(C(C)C)cc2)N1` (stereo not given): 2.6; `NCCCCOc1cccc2ccccc12`: 1.25.
Compound `Cc1ccc(C(=O)c2c(C)cc3n2CCC3C(=O)O)cc1` (stereo not given) registered a lipophilicity (logP) of 3.33.
`COC(=O)NC1=NCC(c2ccc(C=O)cc2)N1C` (stereo not given) had a logP of 0.74.
The value for `COC(=O)NC1=NCC(c2ccccc2)N1C` (stereo not given) was 1.57.
`CCOC(=O)NC1=NCC(c2ccccc2)N1C` (stereo not given): the logP is 1.9.
The value for `COC(=O)NC1=NCC(c2ccccc2Cl)N1C` (stereo not given) was 2.08.
`COC(=O)NC1=NCC(c2cccc(OC)c2)N1C` (stereo not given): the logP is 1.39.

These data come from the SangsterLogP compilation.
